ChEMBL document CHEMBL5579860, “Design and synthesis of novel Thiazolo[5,4-b]pyridine derivatives as potent and selective EGFR-TK inhibitors targeting resistance Mutations in non-small cell lung cancer” (Eur J Med Chem, 2024)
Active and inactive are the calls of the source. The rule behind the calls is not given here.

Tests used:
A549 = assay: Anticancer activity against human A549 cells incubated for 72 hrs by MTT assay; assay type: functional, cell-based; details: A549, 72 h
NCI-H1975 = assay: Anticancer activity against human NCI-H1975 cells incubated for 72 hrs by MTT assay; assay type: functional, cell-based; details: NCI-H1975, 72 h
HCC827 [1] = assay: Anticancer activity against human HCC827 cells incubated for 72 hrs by MTT assay; assay type: functional, cell-based; details: HCC827, 72 h
[2] = Cytotoxicity against human BEAS-2B cells; assay type: toxicity, cell-based
[3] = target: Epidermal growth factor receptor (Homo sapiens) (UniProt P00533); assay: Inhibition of EGFR autophosphorylation in human HCC827 cells at 0.01 to 1.00 uM incubated for 8 hrs by Western blot analysis; assay type: cell-based; details: dose 0.01-1 µM
HCC827 [4] = assay: Induction of apoptosis in human HCC827 cells assessed as late apoptotic cells at IC50 concentration incubated for 24 to 48 hrs by Annexin V-FITC/PI staining based flow cytometry ( Rvb = 1.6% ); assay type: functional; details: time 24-48 hrs
HCC827 [5] = assay: Induction of apoptosis in human HCC827 cells assessed as early apoptotic cells at IC50 concentration incubated for 24 to 48 hrs by Annexin V-FITC/PI staining based flow cytometry ( Rvb = 2.0% ); assay type: functional; details: time 24-48 hrs

Chain of Epidermal growth factor receptor (Homo sapiens) (P00533 whole entry): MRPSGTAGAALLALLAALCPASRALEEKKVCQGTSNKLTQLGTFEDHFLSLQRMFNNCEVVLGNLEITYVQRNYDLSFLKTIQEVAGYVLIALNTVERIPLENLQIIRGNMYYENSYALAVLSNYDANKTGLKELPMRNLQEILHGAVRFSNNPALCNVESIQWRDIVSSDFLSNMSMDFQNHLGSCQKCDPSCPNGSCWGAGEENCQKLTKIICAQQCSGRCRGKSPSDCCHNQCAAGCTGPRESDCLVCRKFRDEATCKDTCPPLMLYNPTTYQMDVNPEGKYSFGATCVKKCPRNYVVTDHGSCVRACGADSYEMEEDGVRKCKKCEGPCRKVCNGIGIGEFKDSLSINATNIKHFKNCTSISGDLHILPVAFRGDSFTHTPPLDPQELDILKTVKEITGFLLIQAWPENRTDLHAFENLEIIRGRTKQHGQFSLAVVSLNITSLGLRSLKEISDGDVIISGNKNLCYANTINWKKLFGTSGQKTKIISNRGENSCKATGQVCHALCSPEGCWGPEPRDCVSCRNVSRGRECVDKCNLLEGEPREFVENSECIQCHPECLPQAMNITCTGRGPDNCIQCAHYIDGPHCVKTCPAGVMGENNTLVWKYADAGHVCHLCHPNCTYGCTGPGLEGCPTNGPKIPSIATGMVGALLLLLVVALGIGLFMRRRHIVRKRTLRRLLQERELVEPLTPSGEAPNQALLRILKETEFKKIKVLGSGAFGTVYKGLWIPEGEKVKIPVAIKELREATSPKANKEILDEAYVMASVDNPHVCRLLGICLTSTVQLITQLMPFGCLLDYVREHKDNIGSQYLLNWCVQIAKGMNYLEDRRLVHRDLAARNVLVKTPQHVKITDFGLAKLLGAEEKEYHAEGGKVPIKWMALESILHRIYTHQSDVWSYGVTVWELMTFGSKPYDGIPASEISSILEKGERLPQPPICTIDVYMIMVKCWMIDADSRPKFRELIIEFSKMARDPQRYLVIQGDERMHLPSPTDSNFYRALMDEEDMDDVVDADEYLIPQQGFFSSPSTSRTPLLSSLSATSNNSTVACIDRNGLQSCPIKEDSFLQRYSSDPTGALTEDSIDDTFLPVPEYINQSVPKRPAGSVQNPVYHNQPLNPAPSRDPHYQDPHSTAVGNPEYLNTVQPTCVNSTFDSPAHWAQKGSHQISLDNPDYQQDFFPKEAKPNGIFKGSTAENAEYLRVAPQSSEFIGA

| SMILES | IC50 (A549) | IC50 (NCI-H1975) | IC50 (HCC827 [1]) | IC50 [2] | inhibition [3] | Activity (HCC827 [4]) | Activity (HCC827 [5]) |
| --- | --- | --- | --- | --- | --- | --- | --- |
| COc1cc(-c2cnc3sc(-c4cccc(NS(=O)(=O)c5cc(F)ccc5OC)c4C)nc3c2)ccn1 | 8450 nM | 4560 nM | 4420 nM |  |  |  |  |
| C=CC(=O)Nc1cc(Nc2nccc(-c3cn(C)c4ccccc34)n2)c(OC)cc1N(C)CCN(C)C [OSIMERTINIB] | 860 nM |  | 7 nM |  |  |  |  |
| COc1ccc(F)cc1S(=O)(=O)Nc1cccc(-c2nc3cc(-c4cccnc4)cnc3s2)c1C | 11200 nM | 6190 nM | 6010 nM |  |  |  |  |
| COc1ccc(F)cc1S(=O)(=O)Nc1cccc(-c2nc3cc(-c4cccnc4OC)cnc3s2)c1C | 8410 nM | 4550 nM | 4400 nM |  |  |  |  |
| Cc1c(NS(=O)(=O)c2cnn(C)c2)cccc1-c1nc2cccnc2s1 | 4230 nM | 3300 nM | 2180 nM |  |  |  |  |
| CCc1cnc2sc(-c3cccc(NS(=O)(=O)c4cc(F)ccc4F)c3C)nc2c1 | 1480 nM | 420 nM | 700 nM |  |  |  |  |
| COc1ccc(F)cc1S(=O)(=O)Nc1cccc(-c2nc3cc(-c4cccs4)cnc3s2)c1C | 9080 nM | 4720 nM | 4880 nM |  |  |  |  |
| Cc1c(NS(=O)(=O)c2ccc(F)c(C#N)c2)cccc1-c1nc2cccnc2s1 | 3270 nM | 2100 nM | 1460 nM |  |  |  |  |
| COc1ncccc1-c1cnc2sc(-c3cccc(NS(=O)(=O)c4cc(F)ccc4F)c3C)nc2c1 | 920 nM | 150 nM | 40 nM | 37100 nM |  |  |  |
| COc1ccc(F)cc1S(=O)(=O)Nc1cccc(-c2nc3cc(C#N)cnc3s2)c1C | 11400 nM | 6250 nM | 6110 nM |  |  |  |  |
| CC(=O)c1ccc(-c2cnc3sc(-c4cccc(NS(=O)(=O)c5cc(F)ccc5F)c4C)nc3c2)cc1 | 1420 nM | 360 nM | 560 nM |  |  |  |  |
| Cc1c(NS(=O)(=O)c2cc(F)ccc2F)cccc1-c1nc2cc(-c3cnc(N)nc3)cnc2s1 | 820 nM | 80 nM | 10 nM | 38400 nM | Active | 8.8% | 31.9% |
| Cc1c(N)cccc1-c1nc2cccnc2s1 | 29100 nM | 12700 nM | 10100 nM |  |  |  |  |
| Cc1c(NS(=O)(=O)c2cc(F)ccc2F)cccc1-c1nc2cc(-c3cccs3)cnc2s1 | 1330 nM | 300 nM | 110 nM |  |  |  |  |
| COc1ccc(F)cc1S(=O)(=O)Nc1cccc(-c2nc3cc(-c4ccc(C(C)=O)cc4)cnc3s2)c1C | 11400 nM | 6300 nM | 6140 nM |  |  |  |  |
| COc1ccc(F)cc1S(=O)(=O)Nc1cccc(-c2nc3cc(-c4cncnc4)cnc3s2)c1C | 8140 nM | 4380 nM | 4330 nM |  |  |  |  |
| COc1ccc(F)cc1S(=O)(=O)Nc1cccc(-c2nc3cc(-c4ccccc4)cnc3s2)c1C | 11000 nM | 6200 nM | 6080 nM |  |  |  |  |
| Cc1c(NS(=O)(=O)c2ccccc2)cccc1-c1nc2cccnc2s1 | 4600 nM | 3320 nM | 2200 nM |  |  |  |  |
| Cc1c(NS(=O)(=O)c2ccc(F)cc2F)cccc1-c1nc2cccnc2s1 | 3170 nM | 2110 nM | 1400 nM |  |  |  |  |
| COc1ccc(F)cc1S(=O)(=O)Nc1cccc(-c2nc3cc(-c4cccc(C(F)(F)F)c4)cnc3s2)c1C | 10900 nM | 6110 nM | 6020 nM |  |  |  |  |
| Cc1c(NS(=O)(=O)c2cccc(Cl)c2)cccc1-c1nc2cccnc2s1 | 3280 nM | 2210 nM | 1590 nM |  |  |  |  |
| Cc1c(NS(=O)(=O)c2cc(F)ccc2F)cccc1-c1nc2cc(-c3ccc(C(F)(F)F)nc3)cnc2s1 | 980 nM | 220 nM | 44 nM |  |  |  |  |
| Cc1c(NS(=O)(=O)c2cc(F)ccc2F)cccc1-c1nc2cc(-c3ccccc3)cnc2s1 | 1160 nM | 220 nM | 89 nM |  |  |  |  |

| SMILES | IC50 (A549) | IC50 (NCI-H1975) | IC50 (HCC827 [1]) | IC50 [2] | inhibition [3] | Activity (HCC827 [4]) | Activity (HCC827 [5]) |
| --- | --- | --- | --- | --- | --- | --- | --- |
| COc1cccc(-c2cnc3sc(-c4cccc(NS(=O)(=O)c5cc(F)ccc5F)c4C)nc3c2)c1 | 1090 nM | 340 nM | 720 nM |  |  |  |  |
| COc1cc(-c2cnc3sc(-c4cccc(NS(=O)(=O)c5cc(F)ccc5F)c4C)nc3c2)ccn1 | 960 nM | 180 nM | 42 nM |  |  |  |  |
| Cc1c(NS(=O)(=O)c2cc(F)ccc2F)cccc1-c1nc2cc(-c3cc[nH]n3)cnc2s1 | 1340 nM | 300 nM | 140 nM |  |  |  |  |
| Cc1c(NS(=O)(=O)c2cc(F)ccc2F)cccc1-c1nc2cc(-c3cncnc3)cnc2s1 | 880 nM | 110 nM | 21 nM | 42100 nM |  |  |  |
| Cc1c(NS(=O)(=O)c2cc(F)ccc2F)cccc1-c1nc2cc(-c3ccc(C#N)nc3)cnc2s1 | 910 nM | 120 nM | 41 nM | 37000 nM |  |  |  |
| COc1ccc(F)cc1S(=O)(=O)Nc1cccc(-c2nc3cc(-c4ccc(C#N)nc4)cnc3s2)c1C | 8330 nM | 4500 nM | 4380 nM |  |  |  |  |
| Cc1c(NS(=O)(=O)C2CCOCC2)cccc1-c1nc2cccnc2s1 | 4180 nM | 3120 nM | 2110 nM |  |  |  |  |
| COc1ccc(F)cc1S(=O)(=O)Nc1cccc(-c2nc3cc(-c4ccc(C(F)(F)F)nc4)cnc3s2)c1C | 8230 nM | 4440 nM | 4360 nM |  |  |  |  |
| Cc1c(NS(=O)(=O)c2cc(F)ccc2F)cccc1-c1nc2cccnc2s1 | 3090 nM | 1090 nM | 1160 nM |  |  |  |  |
| COc1ccc(F)cc1S(=O)(=O)Nc1cccc(-c2nc3cc(-c4cnc(N)nc4)cnc3s2)c1C | 8120 nM | 4140 nM | 4310 nM |  |  |  |  |
| Cc1c(NS(=O)(=O)c2cccnc2)cccc1-c1nc2cccnc2s1 | 4100 nM | 3060 nM | 2100 nM |  |  |  |  |
| COc1ccc(F)cc1S(=O)(=O)Nc1cccc(-c2nc3cc(CN4CCOCC4)cnc3s2)c1C | 8540 nM | 4700 nM | 4610 nM |  |  |  |  |
| Cc1c(NS(=O)(=O)c2cc(F)ccc2F)cccc1-c1nc2cc(CN3CCN(C)CC3)cnc2s1 | 2310 nM | 770 nM | 520 nM |  |  |  |  |
| Cc1c(NS(=O)(=O)c2cc(F)ccc2F)cccc1-c1nc2cc(CN3CCCC3)cnc2s1 | 2180 nM | 520 nM | 490 nM |  |  |  |  |
| COc1ccc(F)cc1S(=O)(=O)Nc1cccc(-c2nc3cc(CN4CCN(C)CC4)cnc3s2)c1C | 8500 nM | 4600 nM | 4500 nM |  |  |  |  |
| Cc1c(NS(=O)(=O)Cc2ccccc2)cccc1-c1nc2cccnc2s1 | 4620 nM | 3410 nM | 2240 nM |  |  |  |  |
| COc1ccc(F)cc1S(=O)(=O)Nc1cccc(-c2nc3cc(-c4cc[nH]n4)cnc3s2)c1C | 9340 nM | 4890 nM | 5010 nM |  |  |  |  |
| Cc1c(NS(=O)(=O)c2cc(F)ccc2F)cccc1-c1nc2cc(-c3cccc(C(F)(F)F)c3)cnc2s1 | 1210 nM | 260 nM | 92 nM |  |  |  |  |
| Cc1c(NS(=O)(=O)c2ccccc2OC(F)(F)F)cccc1-c1nc2cccnc2s1 | 3190 nM | 2180 nM | 1520 nM |  |  |  |  |
| COc1cccc(-c2cnc3sc(-c4cccc(NS(=O)(=O)c5cc(F)ccc5OC)c4C)nc3c2)c1 | 11700 nM | 7100 nM | 6210 nM |  |  |  |  |
| Cc1c(NS(=O)(=O)c2cc(F)ccc2F)cccc1-c1nc2cc(CN3CCOCC3)cnc2s1 | 2100 nM | 460 nM | 420 nM |  |  |  |  |
| CSc1ncc(-c2cnc3sc(-c4cccc(NS(=O)(=O)c5cc(F)ccc5F)c4C)nc3c2)cn1 | 800 nM | 90 nM | 10 nM | 44100 nM |  |  |  |
| Cc1c(NS(=O)(=O)c2cc(F)ccc2F)cccc1-c1nc2cc(C#N)cnc2s1 | 1280 nM | 280 nM | 94 nM |  |  |  |  |
